Patent US20150175655A1 (priority 2012, published 2015)

Target: T1, NS3 genotype 1b protease (Hepatitis C virus genotype 1b, UniProt Q9WMX2, E1202G)
T1 construct: Purified NS3 protease domain (amino acids 1-181) of the genotype 1b and 3a virus were generated as above; K3 hexahistidine tag (N); rTEV protease cleavage site (N); made in house; host or cells: E. coli BL21AI, pET28 vector p28-N6H-Tev-NS3(181)1b
Assay: Ki determination, NS3 protease genotype 1b (fluorogenic depsipeptide substrate)
Type: biochemical
How it was run: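 The His-tagged HCV NS3 protease domain (residues 1-181, genotype 1b con-1) was expressed in E. coli, and 50 pM enzyme with 20 μM NS4A peptide was used. Inhibitor (100 nM to 5 pM, 3-fold steps) was pre-incubated 1 h at room temperature in 50 mM HEPES, 40% glycerol, 0.05% Triton X-100, 10 mM DTT, 10% DMSO. The reaction was started with 4 μM fluorogenic substrate, and fluorescence (ex 340/em 490 nm) was read every 30 s between 90 and 120 min. Ki^app came from fitting rates with the Morrison equation.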

## COc1ccc2nc3c(nc2c1)O[C@H]1CN(C(=O)[C@H](C(C)(C)C)NC(=O)O[C@@H]2C[C@H]2CCCCC3F)[C@H](C(=O)N[C@]2(C(=O)NS(=O)(=O)C3(C)CC3)C[C@H]2C(F)F)[C@@H]1C (stereo partly drawn) [Example 47, (1aR,5S,8S,9S,10R,22aR)-5-tert-butyl-N-[(1R,2R)-2-(difluoromethyl)-1-{[(1-methylcyclopropyl)sulfonyl]carbamoyl}cyclopropyl]-18-fluoro-14-methoxy-9-methyl-3,6-dioxo-1,1a,3,4,5,6,9,10,18,19,20,21,22,22a-tetradecahydro-8H-7,10-methanocyclopropa[18,19][1,10,3,6]dioxadiazacyclononadecino[11,12-b]quinoxaline-8-carboxamide]
  Ki: 0.07 nM
